IC50 data for 14 molecules are collected here from patent US11384055B2 (BIOMARIN PHARMACEUTICAL INC., priority 2017, dated 2022).

Molecules are shown by their SMILES. A value given as a limit tells only on which side of the number the result lay.

This test addresses T1, Human GO (Homo sapiens, UniProt Q9UJM8).
T1 construct: purchased Novus Biologicals NBP1-72412
T1 sequence (Q9UJM8 1-370): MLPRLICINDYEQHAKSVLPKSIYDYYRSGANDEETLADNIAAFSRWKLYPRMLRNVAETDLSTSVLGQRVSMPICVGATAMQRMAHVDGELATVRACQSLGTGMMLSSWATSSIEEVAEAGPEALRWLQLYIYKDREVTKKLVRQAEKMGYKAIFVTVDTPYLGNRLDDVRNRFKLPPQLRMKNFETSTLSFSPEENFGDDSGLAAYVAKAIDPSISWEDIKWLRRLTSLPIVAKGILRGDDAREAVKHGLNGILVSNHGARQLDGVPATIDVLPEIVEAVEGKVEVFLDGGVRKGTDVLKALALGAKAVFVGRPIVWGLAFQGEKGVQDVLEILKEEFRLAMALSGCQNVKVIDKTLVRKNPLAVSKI
In words: GO enzymatic assay (coupled fluorescence/HRP assay, glycolate substrate). The test is classed as biochemical. The settings on record: Table 2; read-out: Range (range of IC50 values calculated from the enzymatic assays). An outline of the steps: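 Coupled HRP/fluorescence read-out of glycolate oxidation by human GO in 50 mM potassium phosphate buffer (pH 7). Inhibitors added across a concentration range.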
Consider `O=C(O)c1[nH]nnc1SC1CCN(c2ccc(OC(F)(F)F)c(Cl)c2)CC1` [Compound 346, 4-((1-(3-chloro-4-(trifluoromethoxy)phenyl)piperidin-4-yl)thio)-1H-1,2,3-triazole-5-carboxylic acid], for which the IC50 is below 0.1 µM.

For the molecule `O=C(O)c1[nH]nnc1S[C@H]1CC[C@@H](c2ccc(N3CCCC3)cc2)CC1` [Compound 347, 4-(((cis)-4-(4-(pyrrolidin-1-yl)phenyl)cyclohexyl)thio)-1H-1,2,3-triazole-5-carboxylic acid 2,2,2-trifluoroacetate], the IC50 is below 0.1 µM.

With `O=C(O)c1[nH]nnc1S[C@H]1CC[C@@H](c2ccc(OC(F)(F)F)cc2)CC1` [Compound 348, 4-(((cis)-4-(4-(trifluoromethoxy)phenyl)cyclohexyl)thio)-1H-1,2,3-triazole-5-carboxylic acid], the IC50 was below 0.1 µM.

With `CC1CCCCN1c1ccc(-c2ccc(Sc3nn[nH]c3C(=O)O)cc2)cc1` (centres unmarked) [Compound 349, 4-((4′-(2-methylpiperidin-1-yl)-[1,1′-biphenyl]-4-yl)thio)-1H-1,2,3-triazole-5-carboxylic acid 2,2,2-trifluoroacetate], the IC50 is below 0.1 µM.

With `O=C(O)c1[nH]nnc1CSC1CCN(c2cc(Cl)cc(Cl)c2)CC1` [Compound 350, 4-(((1-(3,5-dichlorophenyl)piperidin-4-yl)thio)methyl)-1H-1,2,3-triazole-5-carboxylic acid 2,2,2-trifluoroacetate], the IC50 is below 0.1 µM.

Consider `O=C(O)c1[nH]nnc1Sc1cccc(OC2CCCC2)c1` [Compound 351, 4-((3-(cyclopentyloxy)phenyl)thio)-1H-1,2,3-triazole-5-carboxylic acid 2,2,2-trifluoroacetate], for which the IC50 was 0.1 to 1 µM.

For `N#Cc1ccc([C@H]2CC[C@@H](Sc3nn[nH]c3C(=O)O)CC2)cc1` [Compound 352, 4-(((cis)-4-(4-cyanophenyl)cyclohexyl)thio)-1H-1,2,3-triazole-5-carboxylic acid], the IC50 was below 0.1 µM.

With `O=C(O)c1[nH]nnc1Oc1ccc(Cl)c(OCC2CCCC2)c1` [Compound 353, 4-(4-chloro-3-(cyclopentylmethoxy)phenoxy)-1H-1,2,3-triazole-5-carboxylic acid 2,2,2-trifluoroacetate], the IC50 was below 0.1 µM.

For the molecule `O=C(O)c1[nH]nnc1OC1CCN(c2cc(Cl)cc(OC(F)(F)F)c2)CC1` [Compound 354, 4-((1-(3-chloro-5-(trifluoromethoxy)phenyl)piperidin-4-yl)oxy)-1H-1,2,3-triazole-5-carboxylic acid], the IC50 is below 0.1 µM.

As for `O=C(O)c1[nH]nnc1O[C@H]1CC[C@@H](c2cc(Cl)cc(OC(F)(F)F)c2)CC1` [Compound 355, 4-(((cis)-4-(3-chloro-5-(trifluoromethoxy)phenyl)cyclohexyl)oxy)-1H-1,2,3-triazole-5-carboxylic acid], the IC50 was below 0.1 µM.

With `O=C(O)c1[nH]nnc1O[C@H]1CC[C@@H](c2ccc(N3CCCC3)cc2)CC1` [Compound 356, 4-(((cis)-4-(4-(pyrrolidin-1-yl)phenyl)cyclohexyl)oxy)-1H-1,2,3-triazole-5-carboxylic acid 2,2,2-trifluoroacetate], the IC50 was below 0.1 µM.

For the molecule `O=C(O)c1[nH]nnc1Oc1cc(OCC2CCCC2)ccc1Cl` [Compound 357, 4-(2-chloro-5-(cyclopentylmethoxy)phenoxy)-1H-1,2,3-triazole-5-carboxylic acid], the IC50 is below 0.1 µM.

Regarding `O=C(O)c1[nH]nnc1Oc1cc(Cl)cc(OC(F)(F)F)c1` [Compound 358, 4-(3-chloro-5-(trifluoromethoxy)phenoxy)-1H-1,2,3-triazole-5-carboxylic acid], the IC50 is below 0.1 µM.

In the case of `N#Cc1ccc(N2CCC(Oc3nn[nH]c3C(=O)O)CC2)cc1` [Compound 359, 4-((1-(4-cyanophenyl)piperidin-4-yl)oxy)-1H-1,2,3-triazole-5-carboxylic acid 2,2,2-trifluoroacetate], the IC50 was below 0.1 µM.
